# From ChEMBL document CHEMBL1136751 (J Med Chem, 2003)
# Tests used:
# [1] = molecular target: T1, Peroxisome proliferator-activated receptor alpha (Homo sapiens, UniProt Q07869); test: Receptor binding affinity to human Peroxisome proliferator activated receptor alpha against [3H]-NNC 0061-4655 radioligand
# T1 sequence (Q07869 whole entry): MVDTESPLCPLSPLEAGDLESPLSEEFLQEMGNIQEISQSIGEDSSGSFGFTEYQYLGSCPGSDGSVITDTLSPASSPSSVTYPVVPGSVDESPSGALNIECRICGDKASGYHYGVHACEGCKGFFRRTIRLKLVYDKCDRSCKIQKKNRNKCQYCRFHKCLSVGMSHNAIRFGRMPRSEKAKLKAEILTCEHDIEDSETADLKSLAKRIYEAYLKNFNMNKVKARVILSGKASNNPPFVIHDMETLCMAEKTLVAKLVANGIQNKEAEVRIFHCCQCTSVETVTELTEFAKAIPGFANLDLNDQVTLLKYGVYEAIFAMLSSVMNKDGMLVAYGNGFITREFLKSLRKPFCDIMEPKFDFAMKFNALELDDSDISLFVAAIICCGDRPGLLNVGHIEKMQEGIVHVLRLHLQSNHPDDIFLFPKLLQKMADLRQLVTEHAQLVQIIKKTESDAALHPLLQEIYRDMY
# [2] = molecular target: T2, Peroxisome proliferator-activated receptor gamma (Homo sapiens, UniProt P37231)
# T2 sequence (P37231 whole entry): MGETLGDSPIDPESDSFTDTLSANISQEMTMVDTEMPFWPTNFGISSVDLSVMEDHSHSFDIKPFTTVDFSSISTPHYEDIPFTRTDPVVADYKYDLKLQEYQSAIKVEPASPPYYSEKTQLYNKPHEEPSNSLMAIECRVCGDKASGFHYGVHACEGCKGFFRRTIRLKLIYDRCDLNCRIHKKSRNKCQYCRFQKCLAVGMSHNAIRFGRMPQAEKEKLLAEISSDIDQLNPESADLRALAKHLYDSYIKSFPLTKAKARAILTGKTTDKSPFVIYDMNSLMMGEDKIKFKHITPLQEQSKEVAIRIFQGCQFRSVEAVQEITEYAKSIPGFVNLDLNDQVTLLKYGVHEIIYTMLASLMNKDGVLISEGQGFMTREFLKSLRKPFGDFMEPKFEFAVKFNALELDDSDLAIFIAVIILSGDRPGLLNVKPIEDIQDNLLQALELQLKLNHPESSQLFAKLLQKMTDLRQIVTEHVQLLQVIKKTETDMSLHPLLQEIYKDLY
# Description: Agonistic activity for human Peroxisome proliferator activated receptor gamma
# [3] = molecular target: T2, Peroxisome proliferator-activated receptor gamma; remark: listed apart in the source
# Description: Receptor binding affinity to human Peroxisome proliferator activated receptor gamma against [3H]ragalitazar radioligand
# [4] = molecular target: T1, Peroxisome proliferator-activated receptor alpha; test: Agonistic activity for Peroxisome proliferator activated receptor alpha; type: functional
EC50 [4] [nM],Compound,IC50 [1] [nM],EC50 [2] [nM],IC50 [3] [nM]
–,CCO[C@@H](Cc1ccc(OCCN2c3ccccc3Oc3ccccc32)cc1)C(=O)O [RAGAGLITAZAR],980,600,–
–,CCO[C@H](Cc1ccc(OCCN2c3ccccc3Oc3ccccc32)cc1)C(=O)O,> 10000,–,> 10000
1200,CCO[C@@H](Cc1ccc(OCCc2ccc(OS(C)(=O)=O)cc2)cc1)C(=O)O [TESAGLITAZAR],3800,1300,350
